Measurements taken from PubChem BioAssay (NCI).
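Each compound was tested at five concentrations against cells in 96-well plates for 48 hours. The concentration for 50% growth inhibition is given as GI50. TGI denotes the concentration required for complete inhibition of growth.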

Columns and labels:
Assay in all cases: NCI anticancer screen, dose series, 48 h
786-0 renal = test system: 786-0 renal
A498 renal = test system: A498 renal
A549 NSCLC = test system: A549 NSCLC
ACHN renal = test system: ACHN renal
BT-549 breast = test system: BT-549 breast
CAKI-1 renal = test system: CAKI-1 renal
CCRF-CEM leukemia = test system: CCRF-CEM leukemia
COLO 205 colon = test system: COLO 205 colon
DU-145 prostate = test system: DU-145 prostate
EKVX NSCLC = test system: EKVX NSCLC
HCC-2998 colon = test system: HCC-2998 colon
HCT-116 colon = test system: HCT-116 colon
HCT-15 colon = test system: HCT-15 colon
HL-60(TB) leukemia = test system: HL-60(TB) leukemia
HOP-62 NSCLC = test system: HOP-62 NSCLC
HOP-92 NSCLC = test system: HOP-92 NSCLC
HS 578T breast = test system: HS 578T breast
HT29 colon = test system: HT29 colon
IGROV1 ovarian = test system: IGROV1 ovarian
K-562 leukemia = test system: K-562 leukemia
KM12 colon = test system: KM12 colon
LOX IMVI melanoma = test system: LOX IMVI melanoma
MALME-3M melanoma = test system: MALME-3M melanoma
MCF7 breast = test system: MCF7 breast
MDA-MB-231 breast = test system: MDA-MB-231 breast
MDA-MB-435 = test system: MDA-MB-435
MOLT-4 leukemia = test system: MOLT-4 leukemia
NCI-H226 lung = test system: NCI-H226 lung
NCI-H23 lung = test system: NCI-H23 lung
NCI-H460 lung = test system: NCI-H460 lung
NCI-H522 lung = test system: NCI-H522 lung
NCI/ADR-RES ovarian = test system: NCI/ADR-RES ovarian
OVCAR-3 ovarian = test system: OVCAR-3 ovarian
OVCAR-4 ovarian = test system: OVCAR-4 ovarian
OVCAR-5 ovarian = test system: OVCAR-5 ovarian
OVCAR-8 ovarian = test system: OVCAR-8 ovarian
PC-3 prostate = test system: PC-3 prostate
RPMI-8226 leukemia = test system: RPMI-8226 leukemia
RXF 393 renal = test system: RXF 393 renal
SF-268 CNS = test system: SF-268 CNS
SF-295 CNS = test system: SF-295 CNS
SF-539 CNS = test system: SF-539 CNS
SK-MEL-2 melanoma = test system: SK-MEL-2 melanoma
SK-MEL-28 melanoma = test system: SK-MEL-28 melanoma
SK-MEL-5 melanoma = test system: SK-MEL-5 melanoma
SK-OV-3 ovarian = test system: SK-OV-3 ovarian
SN12C renal = test system: SN12C renal
SNB-19 CNS = test system: SNB-19 CNS
SNB-75 CNS = test system: SNB-75 CNS
SR leukemia = test system: SR leukemia
SW-620 colon = test system: SW-620 colon
T-47D breast = test system: T-47D breast
TK-10 renal = test system: TK-10 renal
U251 CNS = test system: U251 CNS
UACC-257 melanoma = test system: UACC-257 melanoma
UACC-62 melanoma = test system: UACC-62 melanoma
UO-31 renal = test system: UO-31 renal

CC1=C2C(=C[C@@](C)(COC(=O)c3ccc(S(=O)(=O)F)cc3)[C@@H]2O)C(=O)[C@](C)(O)C12CC2
GI50 (786-0 renal): 2150 nM
TGI (786-0 renal): 7930 nM
GI50 (A498 renal): 2270 nM
TGI (A498 renal): 5620 nM
GI50 (A549 NSCLC): 2870 nM
TGI (A549 NSCLC): > 26100 nM
GI50 (ACHN renal): 541 nM
TGI (ACHN renal): 1730 nM
GI50 (BT-549 breast): 1220 nM
TGI (BT-549 breast): 2840 nM
GI50 (CAKI-1 renal): 631 nM
TGI (CAKI-1 renal): 2450 nM
GI50 (CCRF-CEM leukemia): 3210 nM
TGI (CCRF-CEM leukemia): > 28000 nM
GI50 (COLO 205 colon): 951 nM
TGI (COLO 205 colon): 2720 nM
GI50 (DU-145 prostate): 522 nM
TGI (DU-145 prostate): 3040 nM
GI50 (EKVX NSCLC): 2420 nM
TGI (EKVX NSCLC): 6470 nM
GI50 (HCC-2998 colon): 945 nM
TGI (HCC-2998 colon): 2710 nM
GI50 (HCT-116 colon): 587 nM
TGI (HCT-116 colon): 2500 nM
GI50 (HCT-15 colon): 424 nM
TGI (HCT-15 colon): 2240 nM
GI50 (HL-60(TB) leukemia): 566 nM
TGI (HL-60(TB) leukemia): 5910 nM
GI50 (HOP-62 NSCLC): 2550 nM
TGI (HOP-62 NSCLC): 13800 nM
GI50 (HOP-92 NSCLC): 2170 nM
TGI (HOP-92 NSCLC): 6010 nM
GI50 (HS 578T breast): 2420 nM
TGI (HS 578T breast): 9570 nM
GI50 (HT29 colon): 498 nM
TGI (HT29 colon): 2670 nM
GI50 (IGROV1 ovarian): 941 nM
TGI (IGROV1 ovarian): 5060 nM
GI50 (K-562 leukemia): 3410 nM
TGI (K-562 leukemia): > 100000 nM
GI50 (KM12 colon): 4280 nM
TGI (KM12 colon): 24900 nM
GI50 (LOX IMVI melanoma): 588 nM
TGI (LOX IMVI melanoma): 2220 nM
GI50 (MALME-3M melanoma): 785 nM
TGI (MALME-3M melanoma): 2330 nM
GI50 (MCF7 breast): 596 nM
TGI (MCF7 breast): 9310 nM
GI50 (MDA-MB-231 breast): 1350 nM
TGI (MDA-MB-231 breast): 6620 nM
GI50 (MDA-MB-435): 1170 nM
TGI (MDA-MB-435): 2980 nM
GI50 (MOLT-4 leukemia): 2020 nM
TGI (MOLT-4 leukemia): > 25800 nM
GI50 (NCI-H226 lung): 2300 nM
TGI (NCI-H226 lung): 9140 nM
GI50 (NCI-H23 lung): 1000 nM
TGI (NCI-H23 lung): 3620 nM
GI50 (NCI-H460 lung): 614 nM
TGI (NCI-H460 lung): 1870 nM
GI50 (NCI-H522 lung): 745 nM
TGI (NCI-H522 lung): 2530 nM
GI50 (NCI/ADR-RES ovarian): 815 nM
TGI (NCI/ADR-RES ovarian): 3970 nM
GI50 (OVCAR-3 ovarian): 906 nM
TGI (OVCAR-3 ovarian): 3800 nM
GI50 (OVCAR-4 ovarian): 1690 nM
TGI (OVCAR-4 ovarian): 4390 nM
GI50 (OVCAR-5 ovarian): 982 nM
TGI (OVCAR-5 ovarian): 5120 nM
GI50 (OVCAR-8 ovarian): 903 nM
TGI (OVCAR-8 ovarian): 3620 nM
GI50 (PC-3 prostate): 1710 nM
TGI (PC-3 prostate): > 29100 nM
GI50 (RPMI-8226 leukemia): 24500 nM
TGI (RPMI-8226 leukemia): > 74200 nM
GI50 (RXF 393 renal): 522 nM
TGI (RXF 393 renal): 1230 nM
GI50 (SF-268 CNS): 1060 nM
TGI (SF-268 CNS): 6130 nM
GI50 (SF-295 CNS): 2140 nM
TGI (SF-295 CNS): 8200 nM
GI50 (SF-539 CNS): 1860 nM
TGI (SF-539 CNS): 3710 nM
GI50 (SK-MEL-2 melanoma): 613 nM
TGI (SK-MEL-2 melanoma): 1290 nM
GI50 (SK-MEL-28 melanoma): 556 nM
TGI (SK-MEL-28 melanoma): 2050 nM
GI50 (SK-MEL-5 melanoma): 1490 nM
TGI (SK-MEL-5 melanoma): 3510 nM
GI50 (SK-OV-3 ovarian): 2520 nM
TGI (SK-OV-3 ovarian): 7890 nM
GI50 (SN12C renal): 1200 nM
TGI (SN12C renal): 5460 nM
GI50 (SNB-19 CNS): 1820 nM
TGI (SNB-19 CNS): 10400 nM
GI50 (SNB-75 CNS): 1490 nM
TGI (SNB-75 CNS): 3070 nM
GI50 (SR leukemia): 1360 nM
TGI (SR leukemia): > 22600 nM
GI50 (SW-620 colon): 1970 nM
TGI (SW-620 colon): 8790 nM
GI50 (T-47D breast): 2060 nM
TGI (T-47D breast): 18800 nM
GI50 (TK-10 renal): 2510 nM
TGI (TK-10 renal): 6470 nM
GI50 (U251 CNS): 1400 nM
TGI (U251 CNS): > 25100 nM
GI50 (UACC-257 melanoma): 2050 nM
TGI (UACC-257 melanoma): 4780 nM
GI50 (UACC-62 melanoma): 894 nM
TGI (UACC-62 melanoma): 2560 nM
GI50 (UO-31 renal): 1610 nM
TGI (UO-31 renal): 3090 nM
